Measurements: patent publication US20060008800A1, “Unc-13 in the modulation of neurotransmission and secretion events” (priority 2002, published 2006)

Experiments:
[1] = tested on: hippocampal neurons; test: β-phorbol ester induced potentiation of evoked synaptic currents in autaptic neuron cultures (patch clamp); type: cell-based, mouse; conditions: for β-phorbol ester induced EPSC potentiation (synaptic potentiation): PDBU 100-1000 nM; for EPSC potentiation: PDBU
Procedure: (§1) Microisland culture preparation was performed according to Bekkers and Stevens (1991). The extracellular medium contained (mM): NaCl, 167; KCl, 2.4; HEPES, 10; glucose, 10; CaCl2, 4; MgCl2, 4 (340 mOsm, pH 7.3). Solutions were applied and recordings were performed as described in Rosenmund (1995). To examine synaptically activated currents, experiments were performed using recurrent synapses (autapses) or only single autaptic neuroeses on microisland cultures at room temperature (=24° C.). Pipette solutions included (mM): KCl, 120, or K-Gluconate, 125; HEPES, 10; EGTA, 1; MgCl2, 4.6; Na4ATP, 4; Creatinephosphate, 15; creatinephosphokinase 50 U/ml (320 mOsm, pH 7.3). Wild type and Munc13-1 deficient glutamatergic hippocampal neurons were used to study the characteristics of Munc13-1 and Munc13-1 independent synapses. For these purposes, individual neurons grown on microisland beds of glial cells (Bekkers, 1991) were employed. In this autaptic culture system, where isolated nerve cells make multiple synaptic contacts, so called autapses, with their own dendritic trees, spontaneous transmitter release, release of the readily releasable vesicle pool induced by hypertonic solutions, and action potential evoked release arise from the same synapse population and can be measured readily with patch clamp techniques. Autaptic responses were obtained after brief (1-2 ms) somatic depolarization. This induces an unclamped action potential that is followed by a postsynaptic response with a delay of 2-4 ms. Excitatory, glutamatergic and inhibitory, GABAergic synaptic currents were distinguished by their characteristic pharmacological and kinetic properties. Excitatory glutamatergic cells were mainly characterized because the differential equipment of presynaptic terminals formed by the same axon with Munc13 priming factors is not apparent in GABAergic neurons.
Design of and infection with Semliki Forest Virus was done according to published procedures (Betz, 2001; Ashery, 2000). Cells were measured 22-26 h after infection.
Routinely, cells from Munc13-1^H567K/Munc13-1^H567K mutants were analyzed 12-20 day after plating and compared to wild type control cells obtained from littermates. In some experiments we employed Munc13-1/Munc13-2 double deficient neurons as model cells to study the characteristics of the Munc13-1^H567K variant in comparison to wild type Munc13-1 following overexpression using the Semliki-Forest-Virus system. In contrast to Munc13-1 deficient glutamatergic hippocampal neurons, which still show measurable glutamate release (10% of wild type levels; Augustin, 1999b), double homozygous Munc13-1/Munc13-2 deletion mutant neurons are characterized by a complete lack of spontaneous and evoked transmitter release but can be rescued by reintroduction of Munc13 proteins. This rescue approach was persued in Munc13-1/Munc13-2 double mutant neurons instead of breeding the Munc13-1^H567K/Munc 3-1^H567K mutation into the Munc13-2 deletion mutant background because it was much faster and allowed the direct comparison of additional mutant (Betz, 2001) and wild type Munc13-1 variants in the same cultures. Autaptic responses were obtained after brief (1-2 ms) somatic depolarization. This induces an unclamped action potential that is followed by a postsynaptic response with a delay of 2-4 ms. Excitatory, glutamatergic synaptic currents were identified by their characteristic pharmacological and kinetic properties.

[2] = tested on: hippocampal neurons; test: Effect of PDBU on mEPSC frequency in autaptic neurons; type: cell-based, mouse; conditions: 1 μM PDBU
Procedure: as §1, with “For these purposes, individual neurons grown on microisland beds of glial cells (Bekkers, 1991) were employed.” left out, “Autaptic responses were obtained after brief (1-2 ms) somatic depolarization. This induces an unclamped action potential that is followed by a postsynaptic response with a delay of 2-4 ms. Excitatory, glutamatergic and inhibitory, GABAergic synaptic currents were distinguished by their characteristic pharmacological and kinetic properties. Excitatory glutamatergic cells were mainly characterized because the differential equipment of presynaptic terminals formed by the same axon with Munc13 priming factors is not apparent in GABAergic neurons.” left out
Routinely, cells from Munc13-1^H567K/Munc13-1^H567K mutants were analyzed 12-20 day after plating and compared to wild type control cells obtained from littermates. […]

[3] = tested on: hippocampal neurons; test: Readily releasable vesicle pool size by hypertonic sucrose application; type: cell-based, mouse; conditions: in response to PDBU
Procedure: Microisland culture preparation was performed according to Bekkers and Stevens (1991). The extracellular medium contained (mM): NaCl, 167; KCl, 2.4; HEPES, 10; glucose, 10; CaCl2, 4; MgCl2, 4 (340 mOsm, pH 7.3). Solutions were applied and recordings were performed as described in Rosenmund (1995). To examine synaptically activated currents, experiments were performed using recurrent synapses (autapses) or only single autaptic neuroeses on microisland cultures at room temperature (=24° C.). Pipette solutions included (mM): KCl, 120, or K-Gluconate, 125; HEPES, 10; EGTA, 1; MgCl2, 4.6; Na4ATP, 4; Creatinephosphate, 15; creatinephosphokinase 50 U/ml (320 mOsm, pH 7.3). […] In this autaptic culture system, where isolated nerve cells make multiple synaptic contacts, so called autapses, with their own dendritic trees, spontaneous transmitter release, release of the readily releasable vesicle pool induced by hypertonic solutions, and action potential evoked release arise from the same synapse population and can be measured readily with patch clamp techniques. […]
Synaptic depression in wild type neurons has been interpreted as depletion of the readily releasable pool of vesicles because pool sizes and synaptic responses are reduced in parallel during high frequency stimulation. […]

[4] = tested on: Munc13-1 deficient hippocampal neurons; test: EPSC augmentation following high frequency action potential trains in Munc13-1 deficient, Munc13-2 dependent neurons; type: cell-based, mouse; conditions: 1 μM PDBU; Munc13-2 dependent cells
[5] = tested on: PKCs; type: cell-based, mouse
[6] = tested on: NMDA receptors; test: Use dependent block of synaptic NMDA EPSCs by MK-801; type: cell-based, mouse; conditions: 5 μM; 120 evoked NMDA EPSCs; Munc13-1 deficient neurons
[7] = tested on: NMDA receptors; conditions: cited from earlier work
[8] = 1 μM PDBU, Munc13-1^H567K/Munc13-1^H567K neurons
[9] = Munc13-1 dominated wild type synapses
[10] = after 1 μM PDBU, wildtype neurons

SMILES: CCCC(=O)O[C@@H]1[C@@H](C)[C@@]2(O)[C@@H](C=C(CO)C[C@]3(O)C(=O)C(C)=C[C@@H]23)[C@@H]2C(C)(C)[C@]12OC(=O)CCC [PDBU]
- β-PE induced increase in evoked EPSCs ([1]; 1 μM PDBU alone, wild type neurons (GÖ 6983 experiment)): 160±9 % of baseline values
- increase of evoked EPSC amplitudes over baseline value ([1]; 1 μM PDBU for 1 min, wild type neurons, before bisindolylmaleimide I): 90±19%
- evoked EPSC amplitudes ([1]; 1 μM PDBU for one minute, wildtype neurons): 191±17 % of baseline values
- evoked EPSCs ([1]; 1 μM PDBU, Munc13-1/Munc13-2 double deficient cells overexpressing Munc13-1^H567K): 108±5 % of control levels
- evoked EPSCs ([1]; 1 μM PDBU, Munc13-1/Munc13-2 double deficient neurons overexpressing wild type Munc13-1): 246±22 % of control levels
- evoked EPSC amplitudes [1, 8]: 131±7 % of baseline values
- time constant of increase in evoked EPSC amplitudes [1, 8]: 16 s
- time constant of enhancement of evoked EPSC amplitudes ([1]; 1 μM PDBU, wildtype neurons): 8 s
- phorbol ester induced potentiation of evoked responses ([1]; PDBU 1 μM, rescue with C1-DAG binding mutant ubMunc13-2(H491K)): 1.04±0.03
- phorbol ester induced potentiation of evoked responses ([1]; PDBU 1 μM, rescue with Calmodulin binding deficient mutant ubMunc13-2(W387R)): 2.9±0.4 fold
- β-phorbol ester induced EPSC potentiation (synaptic potentiation) ([1]; Munc13-1 deficient, Munc13-2 dependent synapses): 570±118%
- β-phorbol ester induced EPSC potentiation (synaptic potentiation) [1, 9]: 199±25%
- phorbol ester induced potentiation of evoked responses ([1]; PDBU at 1 μM for 1 minute, double deficient neurons rescued with wildtype ubMunc13-2): 3.9±1.1 fold
- EPSC potentiation ([1]; Munc13-1/Munc13-2 double deficient neurons rescued with Munc13-1): 247±22%
- EPSC potentiation ([1]; Munc13-1/Munc13-2 double deficient neurons rescued with ubMunc13-2): 510±83%
- time constant of return to baseline after removal [1, 10]: 27 s
- time for synaptic amplitude to return to baseline after removal [1, 10]: 3 to 4 min
- β-Phorbol ester induced potentiation of IPSCs ([1]; compared with EPSCs, wild type and Munc13-1 deficient neurons): much less pronounced
- phorbol ester response ([1]; rescue with ubMunc13-2 deletion construct lacking the first 400 amino acids): 4.5±1.3 fold increase
- mEPSC frequency ([2]; Munc13-1^H567K/Munc13-1^H567K cells): 127±16 % of control levels
- mEPSC frequency ([2]; wildtype neurons): 239±34 % of control levels
- increase of readily releasable vesicle pool [3, 9]: 11±5%
- increase of readily releasable vesicle pool ([3]; Munc13-2 dependent synapses): 30±15%
- additivity of β-phorbol ester induced potentiation and train induced augmentation [4]: not additive
- phosphorylation of Munc13-1 [5]: weakly phosphorylated in a constitutive, β-PE independent manner
- phosphorylation of SNAP-25 and GAP-43 [5]: strongly phosphorylated

SMILES: C[C@]12N[C@H](Cc3ccccc31)c1ccccc12 [MK-801]
- reduction of the NMDA EPSC component [6]: more than 90%
- synaptic NMDA receptors activated and blocked during synaptic activity ([7]; Munc13-1 deficient cells): 20%
- cellular NMDA receptors activated and blocked during synaptic activity ([7]; wild type cells): 75%
